# From article PMC8443589, “Modelling human liver fibrosis in the context of non-alcoholic steatohepatitis using a microphysiological system” (Communications Biology, 2021)
# Experiments:
# [1] = tested on: liver MPS NASH model (PHH, KC and HSC co-cultures); experiment: Cue study: pro-fibrotic biomarkers TIMP-1, pro-collagen 1, fibronectin (Fig 5c); format: cell-based, human; conditions: fat medium + cue
# From the text: Assessment of gene expression changes was supplemented by assessment of the secretome produced by NASH microtissues in the MPS after exposure to the various cues. Increased pro-inflammatory cytokine secretion is a defining characteristic in NASH patients, so we conducted a Luminex cytokine array covering 42 different biomarkers, cytokines and chemokines secreted into the culture media of the different microtissues at multiple time points. We consistently detected 27 out of the 42 biomarkers and observed that there was differential expression of cytokines and chemokines driven by the different cues applied to the micro-tissue (Fig. 5a, b). The LPS cue and the presence of higher NPC numbers were responsible for driving the largest increase in cytokine and chemokine release, with the largest increases in cytokines measured on day 14 (Fig. 5b). […] Similarly, to the cytokine production, these changes were not further enhanced by combining cues, as all the cue combinations containing TGFβ had the highest expression (Supp. Fig. 17c).
# Fig. 5 Systems biology interrogation of liver MPS NASH model to determine physiologically relevant cues that promote soluble biomarker changes to mimic advanced NASH disease state. PHH, KC and HSC co-cultures were cultured in the MPS platform under a variety of conditions for 14 days to test number of NPCs, presence of fat, fructose, cholesterol, LPS and TGFβ for effects on the soluble biomarker profile of the liver MPS NASH model. Expression of biomarkers, cytokines and chemokines were compared, all concentrations were normalised by Z-transformation to allow comparison and shown relative to mean for each marker (white = not detected). a Cytokine expression compared with varying levels of NPCs; b for the high NPC group in the presence of additional cues; c Expression of pro-fibrotic biomarkers with varying NPC content and with additional varying cues in high NPC condition (additional data in Supp. Fig. 17). d Graphical summary of the changes that occur in the NASH model in the presence of Fat and Fat + TGFβ. All data were generated from a minimum of three independent replicate samples per condition.
# The MPS LC12 plates consists of 12 individual bioreactors that contain pneumatically driven micro-pumps to recirculate cell culture medium through a collagen-coated scaffold. Cells were cultured using the protocol previously described[20],[21], but briefly, PHH were seeded at a density of 6 × 10^5 viable cells per well on the LC12 plates with each NPC population (KC and/or HSC) at a density of 6 × 10^4 viable cells per well. Each well contained a final volume of 1.6 mL of medium per well and maintained under a flow rate of 1.0 µL/s. Cells were seeded in Williams E medium containing primary hepatocyte thawing and plating supplements (Life Technologies, USA) and cultured initially under downward flow for 8 h before the flow was automatically reversed to upward flow for the next 16 h of culture. Microtissues were then cultured in either HEP-Lean or HEP-Fat medium, both media’s are proprietary to CN Bio Innovations Ltd. The HEP-Fat medium is a derivative of the HEP-LEAN medium and contains a mixture of saturated and unsaturated FFAs, as well as physiologically relevant quantities of insulin and sugars. Complete media changes were performed on all wells every 48–72 h. For certain experiments, the media was supplemented with additional additives from day 4 onwards: 1 ng/ml LPS (lipopolysaccharides from Escherichia coli O111:B4) (Sigma Aldrich, UK), 1 ng/ml recombinant TGF beta 1 protein (Abcam, UK); 500 µM Fructose (Sigma Aldrich, UK), 50 µg/ml Cholesterol (Sigma Aldrich, UK). […]
# [2] = tested on: liver MPS NASH model (PHH, KC and HSC co-cultures); experiment: Cue study: secreted cytokines and chemokines (Luminex) with varying NPC number and added cues (Fig 5a, 5b); format: cell-based, human; conditions: for EGF relative expression (z-transformation) / Eotaxin relative expression (z-transformation) / FGF-2 relative expression (z-transformation) / Fit-3L relative expression (z-transformation) / Fractalkine relative expression (z-transformation) / G-CSF relative expression (z-transformation) / GM-CSF relative expression (z-transformation) / GRO relative expression (z-transformation) / IFN-a2 relative expression (z-transformation) / IL-1RA relative expression (z-transformation) / IL-4 relative expression (z-transformation) / IL-6 relative expression (z-transformation) / IL-7 relative expression (z-transformation) / IL-8 relative expression (z-transformation) / IL-15 relative expression (z-transformation) / IP-10 relative expression (z-transformation) / MCP-1 relative expression (z-transformation) / MCP-3 relative expression (z-transformation) / MDC relative expression (z-transformation) / MIP-1a relative expression (z-transformation) / MIP-1b relative expression (z-transformation) / TNFa relative expression (z-transformation) / VEGF relative expression (z-transformation): Fat media + cue
# From the text: There is only limited understanding of the pathogenic drivers of NASH and their interaction, principally due to a lack of translational models that are amenable to detailed molecular analysis[2],[34]. Here, a systems biology ‘cue-signal-analysis’ paradigm[35],[36] was utilised to produce large factorial datasets to enable the identification of molecular pathways of importance. […] To create varying set ups of the NASH microtissues we created hepatocyte microtissues in the MPS with high numbers of NPC (60,000 KC and HSC—equivalent to 10% of microtissue population) and low numbers of NPCs (6000 KC and HSC—equivalent to 1% of microtissue), representing physiological and non-physiological cell ratios respectively. Next, we took these different microtissues and cultured them in media with or without FFA. Finally, we supplemented the media with lipopolysaccharide (LPS), TGFβ, fructose or cholesterol either as single ‘cues’, in pairs or all together (Fig. 4a). ‘Cues’ were selected for clinical association with NASH. LPS, is a pleiotropic inflammatory molecule, it is proposed to reach the liver via the hepatic portal vein after release from the gastrointestinal tract, contributing to disease progression[37],[38]. TGFβ has been extensively studied in relation to fibrosis due to its regulation of genes controlling collagen and matrix-modifying enzymes. Fructose is a key substrate for de-novo lipogenesis, a process that has been identified as a key event in lipid accumulation within NAFLD patients. Finally, cholesterol accumulation has also been linked to NASH disease aetiology.
# Assessment of gene expression changes was supplemented by assessment of the secretome produced by NASH microtissues in the MPS after exposure to the various cues. Increased pro-inflammatory cytokine secretion is a defining characteristic in NASH patients, so we conducted a Luminex cytokine array covering 42 different biomarkers, cytokines and chemokines secreted into the culture media of the different microtissues at multiple time points. […]
structure (smiles),measurement,setting,value
O=C(CO)[C@@H](O)[C@H](O)[C@H](O)CO [Fructose],Fibronectin (Fold change in cytokine production compared to control),"[1]; Day 6, high NPC",1.389
same,Pro-collagen 1 (Fold change in cytokine production compared to control),"[1]; Day 6, high NPC",2.273
same,TIMP-1 (Fold change in cytokine production compared to control),"[1]; Day 6, high NPC",1.299
same,Fibronectin (Fold change in cytokine production compared to control),"[1]; Day 11, high NPC",0.7381
same,Pro-collagen 1 (Fold change in cytokine production compared to control),"[1]; Day 11, high NPC",1.299
same,TIMP-1 (Fold change in cytokine production compared to control),"[1]; Day 11, high NPC",0.1393
same,Fibronectin (Fold change in cytokine production compared to control),"[1]; Day 14, high NPC",0.7006
same,Pro-collagen 1 (Fold change in cytokine production compared to control),"[1]; Day 14, high NPC",0.7125
same,TIMP-1 (Fold change in cytokine production compared to control),"[1]; Day 14, high NPC",0.2326
same,EGF relative expression (z-transformation),[2]; Day 6,-1.038
same,Eotaxin relative expression (z-transformation),[2]; Day 6,-0.782
same,FGF-2 relative expression (z-transformation),[2]; Day 6,-1.187
same,Fit-3L relative expression (z-transformation),[2]; Day 6,-0.2857
same,Fractalkine relative expression (z-transformation),[2]; Day 6,-0.2691
same,G-CSF relative expression (z-transformation),[2]; Day 6,-0.36
same,GM-CSF relative expression (z-transformation),[2]; Day 6,-0.4175
same,GRO relative expression (z-transformation),[2]; Day 6,-0.4254
same,IFN-a2 relative expression (z-transformation),[2]; Day 6,0.2777
same,IL-1RA relative expression (z-transformation),[2]; Day 6,0.2038
same,IL-4 relative expression (z-transformation),[2]; Day 6,-1.323
same,IL-6 relative expression (z-transformation),[2]; Day 6,-0.4543
same,IL-7 relative expression (z-transformation),[2]; Day 6,-0.8373
same,IL-8 relative expression (z-transformation),[2]; Day 6,0.2742
same,IL-15 relative expression (z-transformation),[2]; Day 6,-0.4814
same,IP-10 relative expression (z-transformation),[2]; Day 6,-0.2708
same,MCP-1 relative expression (z-transformation),[2]; Day 6,0.3757
same,MCP-3 relative expression (z-transformation),[2]; Day 6,-0.2673
same,MDC relative expression (z-transformation),[2]; Day 6,1.214
same,MIP-1a relative expression (z-transformation),[2]; Day 6,0.03503
same,MIP-1b relative expression (z-transformation),[2]; Day 6,-0.1641
same,TNFa relative expression (z-transformation),[2]; Day 6,-0.2082
same,VEGF relative expression (z-transformation),[2]; Day 6,1.537
same,EGF relative expression (z-transformation),[2]; Day 11,-0.1015
same,Eotaxin relative expression (z-transformation),[2]; Day 11,0.09562
same,FGF-2 relative expression (z-transformation),[2]; Day 11,-0.4563
same,Fit-3L relative expression (z-transformation),[2]; Day 11,1.324
same,Fractalkine relative expression (z-transformation),[2]; Day 11,0.9874
same,G-CSF relative expression (z-transformation),[2]; Day 11,-1.298
same,GM-CSF relative expression (z-transformation),[2]; Day 11,-0.6
same,GRO relative expression (z-transformation),[2]; Day 11,-0.3142
same,IFN-a2 relative expression (z-transformation),[2]; Day 11,0.6908
same,IL-1RA relative expression (z-transformation),[2]; Day 11,0.879
same,IL-4 relative expression (z-transformation),[2]; Day 11,-0.3331
same,IL-6 relative expression (z-transformation),[2]; Day 11,-0.2984
same,IL-7 relative expression (z-transformation),[2]; Day 11,-0.3548
same,IL-8 relative expression (z-transformation),[2]; Day 11,-0.6705
same,IL-15 relative expression (z-transformation),[2]; Day 11,0.3314
same,IP-10 relative expression (z-transformation),[2]; Day 11,-0.257
same,MCP-1 relative expression (z-transformation),[2]; Day 11,0.4252
same,MCP-3 relative expression (z-transformation),[2]; Day 11,-0.08763
same,MDC relative expression (z-transformation),[2]; Day 11,0.03858
same,MIP-1a relative expression (z-transformation),[2]; Day 11,-0.4174
same,MIP-1b relative expression (z-transformation),[2]; Day 11,0.1119
same,TNFa relative expression (z-transformation),[2]; Day 11,-0.3492
same,VEGF relative expression (z-transformation),[2]; Day 11,-0.07553
same,EGF relative expression (z-transformation),[2]; Day 14,-0.09066
same,Eotaxin relative expression (z-transformation),[2]; Day 14,1.581
same,FGF-2 relative expression (z-transformation),[2]; Day 14,0.5869
same,Fit-3L relative expression (z-transformation),[2]; Day 14,1.267
same,Fractalkine relative expression (z-transformation),[2]; Day 14,0.9131
same,G-CSF relative expression (z-transformation),[2]; Day 14,0.4426
same,GM-CSF relative expression (z-transformation),[2]; Day 14,-0.06657
same,GRO relative expression (z-transformation),[2]; Day 14,0.04245
same,IFN-a2 relative expression (z-transformation),[2]; Day 14,2.403
same,IL-1RA relative expression (z-transformation),[2]; Day 14,1.114
same,IL-4 relative expression (z-transformation),[2]; Day 14,0.7104
same,IL-6 relative expression (z-transformation),[2]; Day 14,0.4182
same,IL-7 relative expression (z-transformation),[2]; Day 14,1.313
same,IL-8 relative expression (z-transformation),[2]; Day 14,0.7194
same,IL-15 relative expression (z-transformation),[2]; Day 14,1.407
same,IP-10 relative expression (z-transformation),[2]; Day 14,0.8479
same,MCP-1 relative expression (z-transformation),[2]; Day 14,2.011
same,MCP-3 relative expression (z-transformation),[2]; Day 14,1.298
same,MDC relative expression (z-transformation),[2]; Day 14,0.1904
same,MIP-1a relative expression (z-transformation),[2]; Day 14,0.03023
same,MIP-1b relative expression (z-transformation),[2]; Day 14,0.8239
same,TNFa relative expression (z-transformation),[2]; Day 14,0.4054
same,VEGF relative expression (z-transformation),[2]; Day 14,-1.095
same,IP-10 production,[2]; day 15,biggest increase
